# Measured values reported in US11078170B2 (Assembly Biosciences, Inc., priority 2017, dated 2021).
# System: HBV viral production from HepAD38 cells
# Assay: Activity of test compounds on viral production from HepAD38 cells (viral load by qPCR of HBV core sequence in supernatant)
# Assay type: cell-based
# Conditions: Hepatitis B virus, 120 h, 5 days incubation, HBV DNA in supernatant by qPCR, top concentration 10 μM, read-out: Viral Load EC50 Activity range
# Description: Assay Measuring Activity of Test Compounds on Viral Production from HepAD38 Cells
# HepAD38 cells grown in a T-150 flask (Corning, cat #: 430825) with Growth Medium (DMEM/F12 (1:1) (Hyclone, cat #: SH30023.02), 1×Pen/Strep (Invitrogen, cat #: 15140-122), 10% FBS (Tissue Culture Biologics, cat #: 101), 250 μg/mL G418 (Alfa Aesar, cat #: J62671), 1 μg/mL Tetracycline (Teknova, cat #: T3320)) were detached with 0.25% trypsin-EDTA (Invitrogen, cat #: 25200-056). Tetracycline-free treatment medium (15 mL DMEM/F12 (1:1) 1× Pen/step, with 2% FBS, Tet-system approved (Clontech, cat #: 631106) were then added to mix, transferred into a 50 ml conical tube (Falcon, cat #: 21008-918) and spun at 1300 rpm for 5 min. Pelleted cells were then re-suspended/washed with 50 mL of 1×DPBS (Invitrogen, cat #: 14190-136) 2 times and 50 mL treatment medium twice. HepAD38 cells were then re-suspended with 10 mL of treatment medium, syringed and counted. Wells of 96-well clear bottom TC plate (Corning, cat #: 3904) were seeded at 50,000 cells/well in 180 μL of treatment medium, and 20 μL of either 10% DMSO (Sigma, cat #: D4540) as controls or a 10× solution of test compounds in 10% DMSO in treatment media was added for a final compound concentration starting at 10 μM, and plates were incubated in 5% CO2 incubator at 37° C. for 5 days.
# Subsequently viral load production was assayed by quantitative PCR (qPCR) of the HBV core sequence. PCR reaction mixture containing forward primers HBV-f 5′-CTGTGCCTTGGGTGGCTTT-3′, which is SEQ ID NO 1, (IDT DNA), Reverse primers HBV-r 5′-[…]-3′, which is SEQ ID NO 2 (IDT DNA), Fluorescent TaqMan™ Probes HBV-probe 5′-FAM/AGCTCCAAA/ZEN/[…]/3IABkFQ-3′ (IDT DNA), which is SEQ ID NO 3, 10 μL/well of PerfeCTa® qPCR ToughMix® (Quanta Biosciences, Cat #: 95114-05K), and 6 µL/well of DEPC water (Alfa Aesar, cat #: J62087) was prepared. Four μL of supernatant was added to 16 μL of the reaction mixture in a qPCR plate (Applied Biosytems, Cat #: 4309849), sealed with a film (Applied Biosystems, Cat #: 4311971), centrifuged for a few seconds, and subsequently run on an Applied Biosystems VIIA7. The PCR mixture was incubated at 45° C. for 5 min, then 95° C. for 10 min, followed by 40 cycles of 10 seconds at 95° C. and 20 seconds at 60° C. Viral load was quantified against known HBV DNA standards by using ViiA™ 7 Software. Viral load in the supernatant from wells with treated cells were compared against viral load in supernatant from DMSO control wells (≥3 per plate). Cell viability assay was performed with CellTiter-Glo Luminescent Cell Viability Assay (Promega, cat #: G7573) with modification. Mixed appropriate amount of CellTiter-Glo (CTG) 1×DPBS in a 1:1 ratio, added 100 uL of the mixture to each well followed completely removal of all supernatant in each well without touching cell surface. Incubated the plate at room temperature for 10 min on an orbital shaker, and then read the plate with a plate reader (TECAN M1000 or Envision). EC50 or CC50 values were calculated through curve-fitting of the four-parameter nonlinear-logistic-regression model (GraphPad Prism or Dotmatics). CC50 values were all >10 μM.
row,Structure (SMILES),EC50 [nM]
1,"N#CCN1C(C(=O)Nc2ccc(F)c(Cl)c2)CC(c2nccs2)NS1(=O)=O (racemic) [HBV-CSU-093, Cis-N-(3-Chloro-4-fluorophenyl)-2-(cyanomethyl)-5-(thiazol-2-yl)-1,2,6-thiadiazinane-3-carboxamide 1,1-dioxide]",> 5000
2,"O=C(Nc1ccc(F)c(Cl)c1)C1CC(c2nccs2)NS(=O)(=O)N1CCOCc1ccccc1 (racemic) [HBV-CSU-095, Cis-2-(2-(benzyloxy)ethyl)-N-(3-chloro-4-fluorophenyl)-5-(thiazol-2-yl)-1,2,6-thiadiazinane-3-carboxamide 1,1-dioxide]",1000 to 5000
3,"CSCCN1C(C(=O)Nc2ccc(F)c(Cl)c2)CC(c2nccs2)NS1(=O)=O (racemic) [HBV-CSU-109, Cis-N-(3-Chloro-4-fluorophenyl)-2-(2-(methylthio)ethyl)-5-(thiazol-2-yl)-1,2,6-thiadiazinane-3-carboxamide 1,1-dioxide]",< 1000
4,"CN1[C@H](C(=O)Nc2ccc(F)c(Cl)c2)C[C@@H](c2ccc(Br)s2)NS1(=O)=O (racemic) [HBV-CSU-114-Trans (Rac), Trans-5-(5-bromothiophen-2-yl)-N-(3-chloro-4-fluorophenyl)-2-methyl-1,2,6-thiadiazinane-3-carboxamide 1,1-dioxide]",> 5000
5,"Cc1ccc(C2CC(C(=O)Nc3ccc(F)c(Cl)c3)N(C)S(=O)(=O)N2)s1 (racemic) [HBV-CSU-115, Cis-N-(3-chloro-4-fluorophenyl)-2-methyl-5-(5-methylthiophen-2-yl)-1,2,6-thiadiazinane-3-carboxamide 1,1-dioxide]",< 1000
6,"CN1C(C(=O)Nc2ccc(F)c(Cl)c2)CC(c2nnc(-c3ccccc3)s2)NS1(=O)=O (racemic) [HBV-CSU-120, Cis-N-(3-Chloro-4-fluorophenyl)-2-methyl-5-(5-phenyl-1,3,4-thiadiazol-2-yl)-1,2,6-thiadiazinane-3-carboxamide 1,1-dioxide]",< 1000
7,"CN1C(C(=O)Nc2ccc(F)c(Cl)c2)CC(c2ncc(Br)s2)NS1(=O)=O (racemic) [HBV-CSU-122, Cis-5-(5-bromothiazol-2-yl)-N-(3-chloro-4-fluorophenyl)-2-methyl-1,2,6-thiadiazinane-3-carboxamide 1,1-dioxide]",< 1000
8,"CCOCCN1C(C(=O)Nc2ccc(F)c(Cl)c2)CC(c2nccs2)NS1(=O)=O (racemic) [HBV-CSU-142, Cis-N-(3-Chloro-4-fluorophenyl)-2-(2-ethoxyethyl)-5-(thiazol-2-yl)-1,2,6-thiadiazinane-3-carboxamide 1,1-dioxide]",< 1000
9,"Cc1csc(C2CC(C(=O)Nc3ccc(F)c(Cl)c3)N(C)S(=O)(=O)N2)c1 (racemic) [HBV-CSU-147, Cis-N-(3-chloro-4-fluorophenyl)-2-methyl-5-(4-methylthiophen-2-yl)-1,2,6-thiadiazinane-3-carboxamide 1,1-dioxide]",< 1000
10,"CN1C(C(=O)Nc2ccc(F)c(Cl)c2)CC(c2nc(Br)cs2)NS1(=O)=O (racemic) [HBV-CSU-150, Cis-5-(4-Bromothiazol-2-yl)-N-(3-chloro-4-fluorophenyl)-2-methyl-1,2,6-thiadiazinane-3-carboxamide 1,1-dioxide]",< 1000
11,"CN1C(C(=O)Nc2ccc(F)c(Cl)c2)CC(c2ccc(-c3ccc(C#N)c(F)c3)s2)NS1(=O)=O (racemic) [HBV-CSU-156, Cis-N-(3-chloro-4-fluorophenyl)-5-(5-(4-cyano-3-fluorophenyl)thiophen-2-yl)-2-methyl-1,2,6-thiadiazinane-3-carboxamide 1,1-dioxide]",< 1000
12,"CN1C(C(=O)Nc2ccc(F)c(Cl)c2)CC(c2ccc(-c3ccc(C(F)(F)F)nc3)s2)NS1(=O)=O (racemic) [HBV-CSU-158, Cis-N-(3-chloro-4-fluorophenyl)-2-methyl-5-(5-(6-(trifluoromethyl)pyridin-3-yl)thiophen-2-yl)-1,2,6-thiadiazinane-3-carboxamide 1,1-dioxide]",1000 to 5000
13,"CN1C(C(=O)Nc2ccc(F)c(Cl)c2)CC(c2ccc(-c3cccnc3)s2)NS1(=O)=O (racemic) [HBV-CSU-159, Cis-N-(3-chloro-4-fluorophenyl)-2-methyl-5-(5-(pyridin-3-yl)thiophen-2-yl)-1,2,6-thiadiazinane-3-carboxamide 1,1-dioxide]",< 1000
14,"CN1C(C(=O)Nc2ccc(F)c(Cl)c2)CC(c2ccc(-c3ccccn3)s2)NS1(=O)=O (racemic) [HBV-CSU-160, Cis-N-(3-chloro-4-fluorophenyl)-2-methyl-5-(5-(pyridin-2-yl)thiophen-2-yl)-1,2,6-thiadiazinane-3-carboxamide 1,1-dioxide]",< 1000
15,"CN1C(C(=O)Nc2ccc(F)c(Cl)c2)CC(c2ccc(-c3cnn(C)c3)s2)NS1(=O)=O (racemic) [HBV-CSU-161, Cis-N-(3-chloro-4-fluorophenyl)-2-methyl-5-(5-(1-methyl-1H-pyrazol-4-yl)thiophen-2-yl)-1,2,6-thiadiazinane-3-carboxamide 1,1-dioxide]",< 1000
16,"CN1[C@H](C(=O)Nc2ccc(F)c(Cl)c2)C[C@@H](c2ccc(-c3cnn(C)c3)s2)NS1(=O)=O (racemic) [HBV-CSU-161-Trans (Rac), Trans-N-(3-chloro-4-fluorophenyl)-2-methyl-5-(5-(1-methyl-1H-pyrazol-4-yl)thiophen-2-yl)-1,2,6-thiadiazinane-3-carboxamide 1,1-dioxide]",1000 to 5000
17,"CN1C(C(=O)Nc2ccc(F)c(Cl)c2)CC(c2ccc(-c3ccc(NS(C)(=O)=O)cc3)s2)NS1(=O)=O (racemic) [HBV-CSU-163, Cis-N-(3-chloro-4-fluorophenyl)-2-methyl-5-(5-(4-(methylsulfonamido)phenyl)thiophen-2-yl)-1,2,6-thiadiazinane-3-carboxamide 1,1-dioxide]",< 1000
18,"CN1C(C(=O)Nc2ccc(F)c(Cl)c2)CC(c2cc(-c3ccc(C#N)c(F)c3)cs2)NS1(=O)=O (racemic) [HBV-CSU-164, Cis-N-(3-chloro-4-fluorophenyl)-5-(4-(4-cyano-3-fluorophenyl)thiophen-2-yl)-2-methyl-1,2,6-thiadiazinane-3-carboxamide 1,1-dioxide]",< 1000
19,"CN1C(C(=O)Nc2ccc(F)c(Cl)c2)CC(c2cc(-c3ccc(Br)c(F)c3)cs2)NS1(=O)=O (racemic) [HBV-CSU-165, Cis-N-(3-chloro-4-fluorophenyl)-5-(4-(4-bromo-3-fluorophenyl)thiophen-2-yl)-2-methyl-1,2,6-thiadiazinane-3-carboxamide 1,1-dioxide]",1000 to 5000
20,"CN1C(C(=O)Nc2ccc(F)c(Cl)c2)CC(c2cc(-c3ccc(C(F)(F)F)nc3)cs2)NS1(=O)=O (racemic) [HBV-CSU-166, Cis-N-(3-chloro-4-fluorophenyl)-2-methyl-5-(4-(6-(trifluoromethyl)pyridin-3-yl)thiophen-2-yl)-1,2,6-thiadiazinane-3-carboxamide 1,1-dioxide]",< 1000
21,"CN1C(C(=O)Nc2ccc(F)c(Cl)c2)CC(c2cc(-c3ccccn3)cs2)NS1(=O)=O (racemic) [HBV-CSU-168, Cis-N-(3-chloro-4-fluorophenyl)-2-methyl-5-(4-(pyridin-2-yl)thiophen-2-yl)-1,2,6-thiadiazinane-3-carboxamide 1,1-dioxide]",< 1000
22,"CN1C(C(=O)Nc2ccc(F)c(Cl)c2)CC(c2ncc(-c3ccc(Br)c(F)c3)s2)NS1(=O)=O (racemic) [HBV-CSU-173, Cis-5-(5-(4-Bromo-3-fluorophenyl)thiazol-2-yl)-N-(3-chloro-4-fluorophenyl)-2-methyl-1,2,6-thiadiazinane-3-carboxamide 1,1-dioxide]",< 1000
